{"source": "patent US7902421B2", "about": "“Animal model for schizophrenia” (London Health Sciences Centre Research Inc., priority 2003, dated 2011)", "key": {"[1]": {"tested_on": "dopaminergic fibers from the lower layers of the prefrontal cortex", "experiment": "Intracerebral stereotaxic injections of 6-hydroxydopamine eliminating dopaminergic fibers in adult rats", "format": "in vivo, rat", "conditions": "unpublished work by the inventor", "excerpt": "In the normal brain, dopaminergic fibers are distributed mainly in lower layers of the prefrontal cortex, Dopaminergic-fibers are abnormally distributed within the prefrontal cortex in schizophrenic patients with very low density in the lower layers (Akil, Pierri, Whitehead, Edgar, Mohila, Sampson and Lewis, American Journal of Psychiatry 1999, 156:1580-1589). […] Based on this work the inventor believed that abnormal laminar distribution of dopaminergic fibers in the prefrontal cortex may be responsible for the enhanced dopaminergic activity seen in schizophrenia. While abnormal distribution of dopaminergic fibers has been described in the prefrontal cortex in schizophrenic brains (Akil, Pierri, Whitehead, Edgar, Mohila, Sampson and Lewis, American Journal of Psychiatry 1999, 156:1580-1589), this has never implicated in the manifestation of dopaminergic hyperactivity."}, "[2]": {"tested_on": "subcortical dopamine responsivity", "experiment": "Behavioral testing (sniffing, locomotion, rearing) after saline or d-amphetamine challenge", "format": "in vivo, rat", "experimental": "Animals at 5 or 10 weeks of age were habituated to the testing area for three hours each on 2 consecutive days. On the 3rd day, animals were habituated for an hour and then injected with saline (0.2 ml, l.p.) and their behaviors were monitored visually for an hour. They were then injected with d-amphetamine (5 mg/kg, l.p.) and their behaviors were monitored for an additional one-hour. An examiner who was blind to the animal groups performed testing. Several behavioral measures including locomotion, rearing (vertical activity), sniffing and grooming were monitored. Different cohorts of animals were used for testing at 5 and 10 weeks. For stress response, animals were submerged in water at room temperature for 5 min in a large container, then they were placed in a plexiglass box and their behaviors (similar to those described above) were visually monitored,\nFor novelty induced stress response, animals were subjected to novel environment or object and their motor behaviors were monitored. Behavioral data was analyzed using standard statistical methods (Rajakumar, Laurier, Niznik and Stoessi, Synapse 1997, 26: 199-208)."}, "[3]": {"target": "T1, (Homo sapiens, UniProt P08138)", "T1 sequence (P08138 29-427)": "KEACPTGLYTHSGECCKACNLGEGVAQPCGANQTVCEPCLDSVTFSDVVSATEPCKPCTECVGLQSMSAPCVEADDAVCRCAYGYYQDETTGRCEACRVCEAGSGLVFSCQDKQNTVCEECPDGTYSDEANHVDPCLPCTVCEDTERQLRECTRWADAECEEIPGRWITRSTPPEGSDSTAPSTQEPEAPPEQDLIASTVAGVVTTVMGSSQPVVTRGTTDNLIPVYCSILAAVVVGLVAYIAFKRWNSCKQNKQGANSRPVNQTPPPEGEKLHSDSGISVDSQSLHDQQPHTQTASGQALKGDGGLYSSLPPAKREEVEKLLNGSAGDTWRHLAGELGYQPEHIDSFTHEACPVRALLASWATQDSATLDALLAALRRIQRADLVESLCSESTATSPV", "conditions": "cited from earlier work"}, "[4]": {"tested_on": "subplate cells in the developing prefrontal cortex", "experiment": "Apoptosis of subplate cells after neonatal intracerebral injections of nerve growth factor (activated caspase-3 immunoreactivity)", "format": "in vivo, rat", "conditions": "for apoptosis of subplate cells / neurons: intracerebral injections into developing prefrontal cortex of postnatal rats (250 ng/μl/site, postnatal days 3 and 4)", "experimental": "Neonatal rat pups received daily injections of nerve growth factor into the developing prefrontal cortex at 2, 3 and 4 days of age (similarly other animals such as mice or monkeys can be injected at the appropriate neonatal or fetal period of prefrontal cortical development characterized by the expression of p75 receptor in subplate cells). Scalp of rat pups were sprayed with a topical anesthesia, and 1 μl of nerve growth factor ([…] in saline, human recombinant Nerve growth factor, Cedarlane Laboratories) was pressure injected with a 30 gauges needle into the developing prefrontal cortex on each side. Injections were made 1.5 mm in front of the bregma which is visible through the scalp, 0.5 mm lateral to the midline and 1.5 mm deep to the scalp surface. Injections were made slowly over 10 sec and the needle was left in situ for an additional 30 sec. Pups were kept separated from their mother for approximately 20 min during injecttion sessions. During this time they were kept warm. Control rat pups received exactly similar treatment but injected with saline. Experimental and control rats were marked with an ear punch on the right and left ears, respectively. After injection session pups were returned to their mother and allowed to grow under standard conditions.\nBoth neonatally nerve growth factor or saline injected rats were anesthetized with an intraperitoneal injection of sodium pentobarbital (Somnatol, 40 mg/kg) at 5 weeks or 10 weeks of age and perfused transcardially with a solution containing 4% freshly depolymerized paraformaldehyde in 0.1 M phosphate buffer at pH 7.4. Brains were removed, cryoprotected in 18% buffered-sucrose for 24 hours at 4° C., and sectioned in a freezing microtome 40 μm thick sections were processed for Nissl staining and immunohistochemistry as described previously (Rajakumar, Elisevich and Flumerfelt, Journal of Comparative Neurology 1994, 350:324-336)."}, "[5]": {"tested_on": "prefrontal cortex", "experiment": "Histological examination and immunohistochemistry of brains of neonatally injected rats", "format": "in vivo, rat", "experimental": "[…] Brains were removed, cryoprotected in 18% buffered-sucrose for 24 hours at 4° C., and sectioned in a freezing microtome 40 μm thick sections were processed for Nissl staining and immunohistochemistry as described previously (Rajakumar, Elisevich and Flumerfelt, Journal of Comparative Neurology 1994, 350:324-336)."}, "[6]": {"conditions": "at 5 weeks, d-amphetamine 5 mg/kg i.p. vs saline, control and experimental animals"}, "[7]": {"conditions": "at 5 weeks, saline or d-amphetamine challenge, n=30"}, "[8]": {"conditions": "at 10 weeks, d-amphetamine challenge, n=36"}, "[9]": {"conditions": "adult rat, neonatal injections, vs control"}}, "note": "Entries after “also recorded” stand apart in the source; their conditions may differ."}
{"molecule": "NCCc1cc(O)c(O)cc1O", "note": "[6-hydroxydopamine]", "values": [{"measurement": "subcortical dopaminergic activity to systemic injections of amphetamine", "setting": "[1]", "result": "markedly enhanced subcortical dopaminergic activity"}]}
{"molecule": "C[C@H](N)Cc1ccccc1", "note": "[d-amphetamine, reference compound]", "values": [{"measurement": "effect of amphetamine injection on sniffing", "setting": "[2]; [6]", "result": "increases sniffing in both groups of animals"}, {"measurement": "effect of amphetamine injection on total duration of locomotion", "setting": "[2]; [6]", "result": "increases the total duration of locomotion in both groups of animals"}, {"measurement": "effect of amphetamine injection on sniffing", "setting": "[2]; at 10 weeks, d-amphetamine 5 mg/kg i.p. vs saline, control and experimental animals", "result": "increases sniffing in both groups of animals"}]}
{"molecule": "Pro-nerve growth factor", "values": [{"measurement": "increased affinity for p76 receptors", "setting": "[3]", "result": "> 1000", "unit": "fold"}]}
{"molecule": "nerve growth factor", "values": [{"measurement": "apoptosis of subplate cells / neurons", "setting": "[4]", "result": "resulting in apoptosis of the subplate cells; also recorded: specifically induced apoptosis of subplate neurons"}, {"measurement": "apoptosis of subplate cells / neurons", "setting": "[4]; listed as NGF", "result": "induces apoptosis"}, {"measurement": "effect on the hippocampus or other parts of the cerebral cortex", "setting": "[4]; method of injection adopted, neonatal period", "result": "does not affect the hippocampus or any other parts of the cerebral cortex"}, {"measurement": "mechanical, ischemic or inflammatory lesion", "setting": "[4]; postnatal rat brain, intracerebral injections", "result": "without causing any substantial mechanical, ischemic or inflammatory lesion"}, {"measurement": "immunoreactivity of activated caspase-3 in subplate cells", "setting": "[4]; six day-old rat pup, daily intracerebral injections on postnatal days 2, 3 and 4", "result": "undergoing apoptosis"}, {"measurement": "subcortical dopaminergic responsivity", "setting": "[2]; adult (after the 8th week), injections of d-amphetamine", "result": "enhanced subcortical dopamine responsivity; also recorded: increased subcortical dopaminergic responsivity"}, {"measurement": "response to changes in the environment", "setting": "[2]; after the 8th week, neonatally injected rats", "result": "prolonged and enhanced response"}, {"measurement": "total duration of locomotor behavior, experimental vs control animals", "setting": "[2]; [7]", "result": "no differences"}, {"measurement": "total duration of rearing behavior, experimental vs control animals", "setting": "[2]; [7]", "result": "no differences"}, {"measurement": "total duration of sniffing behavior, experimental vs control animals", "setting": "[2]; [7]", "result": "no differences"}, {"measurement": "total duration of locomotor behavior, experimental vs control animals", "setting": "[2]; [8]", "result": "significantly increased locomotor behavior"}, {"measurement": "total duration of rearing behavior, experimental vs control animals", "setting": "[2]; [8]", "result": "significantly increased rearing"}, {"measurement": "total duration of sniffing behavior, experimental vs control animals", "setting": "[2]; at 10 weeks, saline or d-amphetamine challenge, n=36", "result": "no differences"}, {"measurement": "growth and behavioral patterns, experimental vs control rats", "setting": "[2]; until 8 weeks of age", "result": "comparable growth and behavioral patterns"}, {"measurement": "parvalbumin neuronal number in the prefrontal cortex", "setting": "[5]; adult rat, control vs NGF-treated", "result": "comparable"}, {"measurement": "GABA transporter-1 immunoreactive synapses in the prefrontal cortex", "setting": "[5]; [9]", "result": "fewer; also recorded: markedly diminished"}, {"measurement": "density of tyrosine hydroxylase labeled (dopaminergic) fibers in lower layers of the prefrontal cortex", "setting": "[5]; [9]", "result": "considerably decreased; also recorded: decreased density"}, {"measurement": "laminar distribution of parvalbumin immunoreactive terminals in the prefrontal cortex", "setting": "[5]; [9]", "result": "altered laminar distribution of parvalbumin immunoreactive terminals"}, {"measurement": "GABA transporter-1 immunoreactive synapses in the prefrontal cortex", "setting": "[5]; adult rat, neonatal injections, vs control, listed as NGF", "result": "markedly diminished"}, {"measurement": "density of tyrosine hydroxylase labeled (dopaminergic) fibers in lower layers of the prefrontal cortex", "setting": "[5]; adult rat, neonatal injections, vs control, listed as Nerve growth factor", "result": "decreased dopaminergic fibers"}, {"measurement": "gross structure throughout the brain", "setting": "[5]; histological examination of neonatally injected rats", "result": "apparently normal gross structure"}, {"measurement": "laminar distribution of GABAergic terminals in the prefrontal cortex", "setting": "[5]; injected animals as adults", "result": "altered laminar distribution"}, {"measurement": "lateral and third ventricular size", "setting": "[5]; neonatally injected rats in comparison to control animals", "result": "moderately enlarged; also recorded: relatively larger"}, {"measurement": "volume of lateral ventricles", "setting": "[5]; rat sacrificed at 6 months of age, neonatal injections, vs control", "result": "increased considerably"}]}
